Data as given in BigSolDB 2.1.

`Brc1sc(Br)c(Br)c1Br` gave a solubility (mole fraction) (in THF, 278.05 K) of 0.0405, a solubility (mole fraction) (in THF, 281.25 K) of 0.0436 and a solubility (mole fraction) (in THF, 286.15 K) of 0.0469. The solubility (mole fraction) (in THF, 290.15 K) was 0.0511, the solubility (mole fraction) (in THF, 293.15 K) was 0.0538 and the solubility (mole fraction) (in THF, 297.15 K) was 0.0572. It also gave a solubility (mole fraction) (in THF, 302.15 K) of 0.0625, a solubility (mole fraction) (in THF, 307.15 K) of 0.0685 and a solubility (mole fraction) (in THF, 311.65 K) of 0.0738. It also gave a solubility (mole fraction) (in THF, 315.65 K) of 0.0788, a solubility (mole fraction) (in THF, 320.15 K) of 0.0843 and a solubility (mole fraction) (in chloroform, 278.05 K) of 0.02. It also gave a solubility (mole fraction) (in chloroform, 281.25 K) of 0.0229, a solubility (mole fraction) (in chloroform, 286.15 K) of 0.0269 and a solubility (mole fraction) (in chloroform, 290.15 K) of 0.0302. For the same molecule, the solubility (mole fraction) (in chloroform, 293.15 K) was 0.0334, the solubility (mole fraction) (in chloroform, 297.15 K) was 0.039 and the solubility (mole fraction) (in chloroform, 302.15 K) was 0.0455. For the same molecule, the solubility (mole fraction) (in chloroform, 307.15 K) was 0.0536, the solubility (mole fraction) (in chloroform, 311.65 K) was 0.0629 and the solubility (mole fraction) (in chloroform, 315.65 K) was 0.0687. The solubility (mole fraction) (in chloroform, 320.15 K) was 0.0781, the solubility (mole fraction) (in ethanol, 281.25 K) was 0.00149 and the solubility (mole fraction) (in ethanol, 286.15 K) was 0.00165. For the same molecule, the solubility (mole fraction) (in ethanol, 290.15 K) was 0.0018, the solubility (mole fraction) (in ethanol, 293.15 K) was 0.002 and the solubility (mole fraction) (in ethanol, 297.15 K) was 0.00221. The solubility (mole fraction) (in ethanol, 302.15 K) was 0.00267, the solubility (mole fraction) (in ethanol, 307.15 K) was 0.0031 and the solubility (mole fraction) (in ethanol, 311.65 K) was 0.00356. It also gave a solubility (mole fraction) (in ethanol, 315.65 K) of 0.00404, a solubility (mole fraction) (in ethanol, 320.15 K) of 0.00475 and a solubility (mole fraction) (in ethanol, 325.15 K) of 0.00566. The solubility (mole fraction) (in ethyl acetate, 278.05 K) was 0.00809, the solubility (mole fraction) (in ethyl acetate, 281.25 K) was 0.00924 and the solubility (mole fraction) (in ethyl acetate, 286.15 K) was 0.0109. For the same molecule, the solubility (mole fraction) (in ethyl acetate, 290.15 K) was 0.0124, the solubility (mole fraction) (in ethyl acetate, 293.15 K) was 0.0137 and the solubility (mole fraction) (in ethyl acetate, 297.15 K) was 0.0154. It also gave a solubility (mole fraction) (in ethyl acetate, 302.15 K) of 0.0183, a solubility (mole fraction) (in ethyl acetate, 307.15 K) of 0.0216 and a solubility (mole fraction) (in ethyl acetate, 311.65 K) of 0.0249. It also gave a solubility (mole fraction) (in ethyl acetate, 315.65 K) of 0.0279, a solubility (mole fraction) (in ethyl acetate, 320.15 K) of 0.0326 and a solubility (mole fraction) (in ethyl formate, 278.05 K) of 0.00389. For the same molecule, the solubility (mole fraction) (in ethyl formate, 281.25 K) was 0.00451, the solubility (mole fraction) (in ethyl formate, 286.15 K) was 0.00546 and the solubility (mole fraction) (in ethyl formate, 290.15 K) was 0.00632. The solubility (mole fraction) (in ethyl formate, 293.15 K) was 0.00705, the solubility (mole fraction) (in ethyl formate, 297.15 K) was 0.00809 and the solubility (mole fraction) (in ethyl formate, 302.15 K) was 0.00969. It also gave a solubility (mole fraction) (in ethyl formate, 307.15 K) of 0.0118, a solubility (mole fraction) (in ethyl formate, 311.65 K) of 0.0138 and a solubility (mole fraction) (in ethyl formate, 315.65 K) of 0.0154. The solubility (mole fraction) (in ethyl formate, 320.15 K) was 0.0174, the solubility (mole fraction) (in methanol, 281.25 K) was 0.000395 and the solubility (mole fraction) (in methanol, 286.15 K) was 0.000465. The solubility (mole fraction) (in methanol, 290.15 K) was 0.000517, the solubility (mole fraction) (in methanol, 293.15 K) was 0.000567 and the solubility (mole fraction) (in methanol, 297.15 K) was 0.000646. For the same molecule, the solubility (mole fraction) (in methanol, 302.15 K) was 0.00076, the solubility (mole fraction) (in methanol, 307.15 K) was 0.000896 and the solubility (mole fraction) (in methanol, 311.65 K) was 0.00103. The solubility (mole fraction) (in methanol, 315.65 K) was 0.0012, the solubility (mole fraction) (in methanol, 320.15 K) was 0.00144 and the solubility (mole fraction) (in methanol, 325.15 K) was 0.00169. It also gave a solubility (mole fraction) (in n-butanol, 278.05 K) of 0.00267, a solubility (mole fraction) (in n-butanol, 281.25 K) of 0.00295 and a solubility (mole fraction) (in n-butanol, 286.15 K) of 0.00369. The solubility (mole fraction) (in n-butanol, 290.15 K) was 0.00433, the solubility (mole fraction) (in n-butanol, 293.15 K) was 0.0048 and the solubility (mole fraction) (in n-butanol, 297.15 K) was 0.0054. For the same molecule, the solubility (mole fraction) (in n-butanol, 302.15 K) was 0.00636, the solubility (mole fraction) (in n-butanol, 307.15 K) was 0.0077 and the solubility (mole fraction) (in n-butanol, 311.65 K) was 0.00895. The solubility (mole fraction) (in n-butanol, 315.65 K) was 0.0102, the solubility (mole fraction) (in n-butanol, 320.15 K) was 0.0118 and the solubility (mole fraction) (in n-propanol, 281.25 K) was 0.00219. For the same molecule, the solubility (mole fraction) (in n-propanol, 286.15 K) was 0.00256, the solubility (mole fraction) (in n-propanol, 290.15 K) was 0.00287 and the solubility (mole fraction) (in n-propanol, 293.15 K) was 0.00319. The solubility (mole fraction) (in n-propanol, 297.15 K) was 0.00364, the solubility (mole fraction) (in n-propanol, 302.15 K) was 0.00433 and the solubility (mole fraction) (in n-propanol, 307.15 K) was 0.00514. It also gave a solubility (mole fraction) (in n-propanol, 311.65 K) of 0.00584, a solubility (mole fraction) (in n-propanol, 315.65 K) of 0.0067 and a solubility (mole fraction) (in n-propanol, 320.15 K) of 0.00812. For the same molecule, the solubility (mole fraction) (in n-propanol, 325.15 K) was 0.00965, the solubility (mole fraction) (in toluene, 278.05 K) was 0.027 and the solubility (mole fraction) (in toluene, 281.25 K) was 0.0314. The solubility (mole fraction) (in toluene, 286.15 K) was 0.0358, the solubility (mole fraction) (in toluene, 290.15 K) was 0.04 and the solubility (mole fraction) (in toluene, 293.15 K) was 0.044. The solubility (mole fraction) (in toluene, 297.15 K) was 0.0486, the solubility (mole fraction) (in toluene, 302.15 K) was 0.0554 and the solubility (mole fraction) (in toluene, 307.15 K) was 0.0626. The solubility (mole fraction) (in toluene, 311.65 K) was 0.0713, the solubility (mole fraction) (in toluene, 315.65 K) was 0.0756 and the solubility (mole fraction) (in toluene, 320.15 K) was 0.0834.
